Measurements published in patent US20240092759A1, “Non-Covalent Inhibitors of the Main Protease of SARS-CoV-2 and Methods of Use” (YALE UNIVERSITY, priority 2021, published 2024).
Read-outs that look alike come from different tables or passages of the source.

Assays:
[1] = tested on: SARS-CoV-2 replicon; experiment: microbe, parasite or virus in culture; assay type: cell-based; conditions: for IC50: Severe acute respiratory syndrome coronavirus 2, dose-response curves of FIGS. 6A-6B, read-out: IC50, replicon assay, compound alone
[2] = target: recombinant SARS-Cov-2 M^pro (Severe acute respiratory syndrome coronavirus 2 (2019-nCoV) (SARS-CoV-2), UniProt P0DTD1); experiment: biochemical
[3] = tested on: normal human bronchial epithelial cells (NHBE); experiment: Cellular cytotoxicity by MTT in normal human bronchial epithelial cells; conditions: for CC50: read-out: CC50 NHBE, MTT
[4] = tested on: infectious SARS-CoV-2 (isolate USA-WA1/2020); experiment: Antiviral assay, cytopathic effect by MTT in Vero E6 cells; assay type: cell-based; conditions: for EC50: Severe acute respiratory syndrome coronavirus 2, Vero C1008
[5] = tested on: Vero E6 cells; experiment: Cellular cytotoxicity by MTT in Vero E6 cells; conditions: for CC50: read-out: CC50 Vero E6, absence of virus; for cytotoxicity: Vero E6 and NHBE cells
[6] = tested on: infectious SARS-CoV-2 (isolate USA-WA1/2020); experiment: microbe, parasite or virus in culture; assay type: cell-based; conditions: for EC50: Severe acute respiratory syndrome coronavirus 2, Vero C1008, Vero E6 cells, read-out: EC50 Plaque
[7] = Vero E6 cells, MOI 0.01, 72 h, NA = not active, read-out: EC50 MTT
[8] = combination with remdesivir, MacSynergy II
[9] = footnote b: drop in viral titer/incomplete inhibition

SMILES | CC50 [3] [µM] | CC50 [5] [µM] | antiviral activity in the viral plaque assay [6] | cytotoxicity [5] | further results
N#Cc1ccccc1-c1cc(-c2cc(Cl)cc(Cl)c2)c(=O)n(-c2cccnc2)c1 [Compound 9, 2-(3-(3,5-Dichlorophenyl)-2-oxo-2H-[1,3′-bipyridin]-5-yl)benzonitrile] |  |  |  |  | IC50 [1]: 0.0938 µM; combination behavior ([1]; combination with EIDD-1931): synergistic effect; IC50 ([2]; IC50): 4.2 µM; IC50 ([2]; read-out: IC50 (μM), inhibition of SARS-Cov-2 M^pro, Table 4): 4.02 ± 1.36 µM
CCCOc1cc(Cl)cc(-c2cc(-c3ccccc3C#N)cn(-c3cccnc3)c2=O)c1 [Compound 13, 2-(3-(3-Chloro-5-propoxyphenyl)-2-oxo-2H-[1,3′-bipyridin]-5-yl)benzonitrile] | 20 ± 2 | 22 |  |  | EC50 [4, 7]: 2.5 ± 0.7 µM; EC50 ([4]; read-out: EC50, MTT assay): 2.5 µM; combination behavior ([1]; combination with remdesivir): statistically significant synergistic behavior; antagonism volume [1, 8]: 0 μM^2%; mean synergy volume [1, 8]: 30.8 μM^2%; factor of improvement in potency over 9 ([2]; ratio of IC50 values): ca. 30
O=c1[nH]cc(-c2cc(-c3cc(Cl)cc(OCc4ccccc4Cl)c3)c(=O)n(-c3cccnc3)c2)c(=O)[nH]1 [Compound 37, 5-(3-(3-Chloro-5-((2-chlorobenzyl)oxy)phenyl)-2-oxo-2H-[1,3′-bipyridin]-5-yl)pyrimidine-2,4(1H,3H)-dione] | 2 ± 0.1 | 1.7 ± 0.9 | showed activity | greatest cytotoxicity | antiviral activity in the MTT assay [4]: lacked antiviral activity; EC50 [6, 9]: 11.3 µM
N#Cc1ccccc1-c1cc(-c2cc(Cl)cc(OCC3CC3)c2)c(=O)n(-c2cccnc2)c1 [Compound 39, 2-(3-(3-Chloro-5-(cyclopropylmethoxy)phenyl)-2-oxo-2H-[1,3′-bipyridin]-5-yl)benzonitrile] | > 100 | > 100 |  | no cytotoxicity to the highest concentration tested (100 μM) | EC50 [4, 7]: 2 ± 0.7 µM; EC50 ([4]; read-out: EC50, MTT assay): ~1 µM
O=c1[nH]cc(-c2cc(-c3cc(Cl)c(F)c(OCc4ccccc4Cl)c3)c(=O)n(-c3cccnc3)c2)c(=O)[nH]1 [Compound 44, 5-(3-(3-Chloro-5-((2-chlorobenzyl)oxy)-4-fluorophenyl)-2-oxo-2H-[1,3′-bipyridin]-5-yl)pyrimidine-2,4(1H,3H)-dione] | 3.5 ± 1 | 1.15 ± 0.5 | showed activity | greatest cytotoxicity | antiviral activity in the MTT assay [4]: lacked antiviral activity; EC50 ([6]; MOI 0.01): 0.84 µM
O=c1[nH]cc(-c2cc(-c3cc(Cl)cc(OCc4ccccc4)c3)c(=O)n(-c3cccnc3)c2)c(=O)[nH]1 [Compound 46, 5-(3-(3-(Benzyloxy)-5-chlorophenyl)-2-oxo-2H-[1,3′-bipyridin]-5-yl)pyrimidine-2,4(1H,3H)-dione] | 17.5 ± 5.5 | 12.3 ± 7 | antiviral activity was found |  | EC50 [6, 9]: 3.2 µM
N#Cc1ccccc1-c1cc(-c2cc(Cl)cc(OCCC(F)(F)F)c2)c(=O)n(-c2cccnc2)c1 [Compound 47, 2-(3-(3-Chloro-5-(3,3,3-trifluoropropoxy)phenyl)-2-oxo-2H-[1,3′-bipyridin]-5-yl)benzonitrile] | 25 ± 5 | 22 ± 8 |  |  | cytotoxicity towards the NHBE cells ([3]; compared with 39): more cytotoxic
O=c1nc(NO)ccn1[C@@H]1O[C@H](CO)C(O)[C@@H]1O (stereo partly drawn) [EIDD-1931, reference compound] |  |  |  |  | IC50 [1]: 2.23 µM
CCC(CC)COC(=O)[C@H](C)N[P@](=O)(OC[C@H]1O[C@@](C#N)(c2ccc3c(N)ncnn23)[C@H](O)[C@@H]1O)Oc1ccccc1 [remdesivir, reference compound] | 41 ± 2 | 72 ± 28 |  |  | 
